Measurements from DBAASP.
≈ marks a conversion by molar mass, not a printed value.

Tests used:
Experiment in all cases: ≥ marks a high value that may be exact or a test limit, other limits are often not marked, values filed in µg/mL are converted to µM
[1] = system: Escherichia coli ATCC 25726
[2] = system: Staphylococcus aureus ATCC 25923
[3] = system: Micrococcus luteus ATCC 9341
Escherichia coli = system: Escherichia coli
Bacillus subtilis = system: Bacillus subtilis
[4] = system: Pseudomonas aeruginosa ATCC 27853
[5] = system: Staphylococcus aureus ATCC 2592
Escherichia coli ML-35p = system: Escherichia coli ML-35p
[6] = system: Staphylococcus aureus ATCC 43300
[7] = system: Candida albicans ATCC 2002
[8] = system: Pseudomonas aeruginosa PAO1

CC[C@H](C)[C@H](N)C(=O)N[C@@H](CC(C)C)C(=O)NCC(=O)N[C@@H](CCCCN)C(=O)N[C@@H](CC(C)C)C(=O)N[C@@H](CC(C)C)C(=O)N[C@@H](CO)C(=O)N[C@H](C(=O)N[C@@H](C)C(=O)N[C@@H](C)C(=O)N[C@@H](CCCCN)C(=O)N[C@@H](CC(C)C)C(=O)N[C@@H](CC(C)C)C(=O)N[C@@H](CO)C(=O)N[C@@H](CCCCN)C(=O)N[C@@H](CC(C)C)C(N)=O)[C@@H](C)O [ILGKLLSTAAKLLSKL]
MIC [1]: 16 µM (≈ 26.7 µg/mL)
MIC [2]: 2 µM (≈ 3.34 µg/mL)

CC[C@H](C)[C@H](N)C(=O)N[C@@H](CC(C)C)C(=O)N1CCC[C@H]1C(=O)N[C@@H](Cc1c[nH]c2ccccc12)C(=O)N[C@@H](CC(=O)O)C(=O)N[C@@H](Cc1c[nH]c2ccccc12)C(=O)N1CCC[C@H]1C(=O)N[C@@H](Cc1c[nH]c2ccccc12)C(=O)N[C@@H](Cc1c[nH]c2ccccc12)C(=O)N1CCC[C@H]1C(=O)N[C@@H](Cc1c[nH]c2ccccc12)C(=O)N[C@@H](CC(=O)O)C(=O)N[C@@H](CC(=O)O)C(N)=O [ILPWDWPWWPWDD]
MIC [3]: ≥ 100 µM

CC[C@H](C)[C@H](NC(=O)[C@H](CCCCN)NC(=O)[C@H](CCCCN)NC(=O)CNC(=O)[C@H](C)NC(=O)CNC(=O)[C@H](Cc1ccccc1)NC(=O)[C@@H](NC(=O)[C@H](CO)NC(=O)CNC(=O)[C@H](CC(C)C)NC(=O)[C@H](CC(C)C)NC(=O)CN)[C@@H](C)CC)C(=O)N[C@@H](C)C(=O)N[C@H]1CSSC[C@@H](C(=O)O)NC(=O)[C@H](CC(C)C)NC(=O)CNC(=O)[C@H](CO)NC(=O)[C@H](CC(C)C)NC(=O)[C@H](C)NC1=O [GLLGSIFGAGKKIACALSGLC]
MIC [1]: 15.7 µM (≈ 31 µg/mL)
MIC [2]: 31.6 µM (≈ 62.4 µg/mL)

CC[C@H](C)[C@H](NC(=O)[C@H](CO)NC(=O)[C@H](C)NC(=O)[C@@H](NC(=O)[C@H](CCCCN)NC(=O)[C@H](CCCCN)NC(=O)[C@H](Cc1c[nH]c2ccccc12)NC(=O)[C@H](CC(N)=O)NC(=O)[C@@H](N)CO)[C@@H](C)CC)C(=O)NCC(=O)N[C@@H](CCCCN)C(=O)N[C@@H](CCC(=O)O)C(=O)N[C@H](C(=O)N[C@@H](CC(C)C)C(=O)N[C@@H](CCCCN)C(=O)N[C@@H](C)C(=O)N[C@@H](CC(C)C)C(N)=O)C(C)C [SNWKKIASIGKEVLKAL]
MIC (Escherichia coli): 25 µM (≈ 47.1 µg/mL)
MIC (Bacillus subtilis): 30 µM (≈ 56.5 µg/mL)

CC[C@H](C)[C@H](N)C(=O)N[C@H](C(=O)N[C@H](C(=O)N1CCC[C@H]1C(=O)N1CCC[C@H]1C(=O)N[C@H](C(=O)N[C@H](C(=O)N[C@@H](CCCCN)C(=O)N[C@@H](CC(=O)O)C(=O)N[C@H](C(=O)N[C@@H](CC(C)C)C(=O)N[C@@H](CCCCN)C(=O)N[C@@H](CCCCN)C(=O)N[C@@H](Cc1ccccc1)C(=O)N[C@@H](Cc1ccccc1)C(=O)N[C@@H](CCCCN)C(=O)NCC(=O)NCC(=O)N[C@H](C(=O)N[C@@H](C)C(=O)NCC(=O)N[C@H](C(=O)N[C@@H](CCSC)C(=O)NCC(=O)N[C@@H](CCCCN)C(=O)N[C@@H](CO)C(=O)N[C@@H](CCC(N)=O)C(=O)O)C(C)C)[C@@H](C)CC)[C@@H](C)O)[C@@H](C)CC)[C@@H](C)CC)[C@@H](C)CC)[C@@H](C)O [ITIPPIIKDTLKKFFKGGIAGVMGKSQ]
MIC [1]: ≥ 80 µM
MIC [2]: 40 µM (≈ 116 µg/mL)

CC[C@H](C)[C@H](NC(=O)[C@H](C)NC(=O)[C@@H](NC(=O)[C@@H](NC(=O)[C@H](CCCCN)NC(=O)CNC(=O)[C@H](CCCCN)NC(=O)[C@H](CC(=O)O)NC(=O)[C@H](CCCN=C(N)N)NC(=O)[C@@H](NC(=O)[C@@H](N)CO)[C@@H](C)CC)[C@@H](C)O)[C@@H](C)CC)C(=O)N[C@@H](CC(=O)O)C(=O)N[C@@H](CC(C)C)C(=O)N[C@@H](C)C(=O)N[C@@H](CCCCN)C(=O)N[C@@H](CO)C(=O)N[C@@H](C)C(=O)NCC(=O)N[C@H](C(=O)NCC(=O)N[C@H](C(=O)N[C@@H](CC(C)C)C(=O)N[C@@H](CCCCN)C(=O)N[C@H](C(=O)N[C@@H](CC(C)C)C(=O)N[C@@H](CCSC)C(=O)N[C@H]1CSSC[C@@H](C(=O)O)NC(=O)[C@H](CO)NC(=O)[C@H](CCCCN)NC(=O)[C@H](CC(=O)O)NC(=O)[C@H](CC(C)C)NC(=O)[C@H](CCCCN)NC1=O)[C@@H](C)O)C(C)C)[C@@H](C)O [SIRDKGKTIAIDLAKSAGTGVLKTLMCKLDKSC]
MIC [4]: 0.721 µM (≈ 2.5 µg/mL)
MIC [5]: 2.89 µM (≈ 9.99 µg/mL)
MIC (Escherichia coli ML-35p): 2.89 µM (≈ 9.99 µg/mL)
MIC (Bacillus subtilis): 8.66 µM (≈ 30 µg/mL)
MIC [6]: 2.89 µM (≈ 9.99 µg/mL)
MIC [7]: 2.89 µM (≈ 9.99 µg/mL)
MIC [8]: 0.721 µM (≈ 2.5 µg/mL)

CC[C@H](C)[C@@H]1NC(=O)[C@@H]2CSSC[C@@H]3NC(=O)[C@H](Cc4ccccc4)NC(=O)[C@H](CO)NC(=O)[C@H](CO)NC(=O)[C@H](C(C)C)NC(=O)[C@H](C(C)C)NC(=O)[C@@H]4CCCN4C(=O)[C@@H](NC(=O)[C@H](CCSC)NC(=O)[C@H](Cc4ccc(O)cc4)NC(=O)[C@H](CCC(=O)O)NC(=O)[C@H](CO)NC(=O)[C@H](CCCCN)NC(=O)[C@H](CC(N)=O)NC(=O)[C@H](CC(C)C)NC(=O)[C@@H](NC(=O)[C@H](CCC(=O)O)NC(=O)[C@H](CCCCN)NC(=O)[C@@H](NC(=O)[C@H](CCCCN)NC(=O)[C@H](CC(=O)O)NC(=O)[C@@H](NC(=O)[C@H](C)NC(=O)[C@H](CCC(N)=O)NC(=O)[C@H](CC(N)=O)NC(=O)[C@H](CC(C)C)NC(=O)[C@H](CCCCN)NC(=O)[C@H](CCCCN)NC(=O)[C@H](CCCCN)NC(=O)[C@H](CC(C)C)NC(=O)[C@H](CCCCN)NC(=O)[C@H](CCC(N)=O)NC(=O)CNC(=O)[C@@H](NC(=O)[C@@H](NC(=O)[C@H](CO)NC(=O)[C@@H](N)CCCCN)[C@@H](C)O)C(C)C)C(C)C)C(C)C)C(C)C)CSSC[C@H](NC(=O)[C@H](CCC(N)=O)NC(=O)CNC(=O)[C@H](CO)NC(=O)[C@H](CCCCN)NC(=O)CNC(=O)[C@H](CC(C)C)NC(=O)[C@H](CCCN=C(N)N)NC(=O)[C@H](C)NC(=O)[C@H](CSSC[C@@H](C(=O)O)NC1=O)NC(=O)[C@H](Cc1cnc[nH]1)NC(=O)[C@H](CCC(N)=O)NC(=O)[C@H](CCCCN)NC3=O)C(=O)N[C@@H](CC(=O)O)C(=O)N[C@@H](CC(C)C)C(=O)N[C@@H](CC(C)C)C(=O)N[C@@H](CCC(=O)O)C(=O)N2 [KSTVGQKLKKKLNQAVDKVKEVLNKSEYMCPVVSSFCKQHCARLGKSGQCDLLECIC]
MIC (Bacillus subtilis): 0.5 µM (≈ 3.17 µg/mL)

CC[C@H](C)[C@H](N)C(=O)N[C@@H](CC(N)=O)C(=O)N[C@@H](Cc1c[nH]c2ccccc12)C(=O)N[C@@H](CO)C(=O)N[C@@H](CCCCN)C(=O)N[C@H](C(=O)N[C@@H](Cc1ccccc1)C(=O)N[C@@H](CCC(=O)O)C(=O)N[C@@H](CCCCN)C(=O)N[C@H](C(=O)N[C@@H](CCCCN)C(=O)N[C@@H](CC(N)=O)C(=O)N[C@@H](CC(C)C)C(=O)N[C@H](C(N)=O)C(C)C)C(C)C)[C@@H](C)CC [INWSKIFEKVKNLV]
MIC (Escherichia coli): 12.5 µM (≈ 21.5 µg/mL)
MIC (Bacillus subtilis): 17 µM (≈ 29.2 µg/mL)

CC[C@H](C)[C@H](NC(=O)[C@H](C)NC(=O)[C@H](CCSC)NC(=O)[C@@H](NC(=O)[C@H](CCCCN)NC(=O)[C@@H](NC(=O)[C@H](CCCCN)NC(=O)[C@H](CC(=O)O)NC(=O)[C@H](CCCN=C(N)N)NC(=O)[C@@H](NC(=O)[C@@H](N)CO)[C@@H](C)CC)[C@@H](C)CC)[C@@H](C)O)C(=O)N[C@@H](CC(=O)O)C(=O)N[C@@H](CC(C)C)C(=O)N[C@@H](C)C(=O)N[C@@H](CCCCN)C(=O)N[C@@H](CO)C(=O)N[C@@H](C)C(=O)NCC(=O)N[C@H](C(=O)NCC(=O)N[C@H](C(=O)N[C@@H](CC(C)C)C(=O)N[C@@H](CCCCN)C(=O)N[C@H](C(=O)N[C@@H](CC(C)C)C(=O)N[C@H](C(=O)N[C@H]1CSSC[C@@H](C(=O)O)NC(=O)[C@H](CO)NC(=O)[C@H](CCCCN)NC(=O)[C@H](CC(=O)O)NC(=O)[C@H](CC(C)C)NC(=O)[C@H](CCCCN)NC1=O)[C@@H](C)CC)[C@@H](C)O)C(C)C)[C@@H](C)O [SIRDKIKTMAIDLAKSAGTGVLKTLICKLDKSC]
MIC [4]: 1.42 µM (≈ 5 µg/mL)
MIC [5]: 2.84 µM (≈ 9.99 µg/mL)
MIC (Escherichia coli ML-35p): 2.84 µM (≈ 9.99 µg/mL)
MIC (Bacillus subtilis): 11.4 µM (≈ 40 µg/mL)
MIC [6]: 4.26 µM (≈ 15 µg/mL)
MIC [7]: 2.84 µM (≈ 9.99 µg/mL)
MIC [8]: 1.42 µM (≈ 5 µg/mL)

CC[C@H](C)[C@H](N)C(=O)N[C@@H](CC(C)C)C(=O)N1CCC[C@H]1C(=O)N[C@@H](Cc1c[nH]c2ccccc12)C(=O)N[C@@H](CCC(=O)O)C(=O)N[C@@H](Cc1c[nH]c2ccccc12)C(=O)N1CCC[C@H]1C(=O)N[C@@H](Cc1c[nH]c2ccccc12)C(=O)N[C@@H](Cc1c[nH]c2ccccc12)C(=O)N1CCC[C@H]1C(=O)N[C@@H](Cc1c[nH]c2ccccc12)C(=O)N[C@@H](CCC(=O)O)C(=O)N[C@@H](CCC(=O)O)C(N)=O [ILPWEWPWWPWEE]
MIC [3]: ≥ 100 µM

NC(=O)[C@H](CCCN=C(N)N)NC(=O)[C@H](CCCN=C(N)N)NC(=O)[C@H](Cc1c[nH]c2ccccc12)NC(=O)[C@@H]1CCCN1C(=O)[C@H](Cc1c[nH]c2ccccc12)NC(=O)[C@H](Cc1c[nH]c2ccccc12)NC(=O)[C@@H]1CCCN1C(=O)[C@@H](N)Cc1c[nH]c2ccccc12 [WPWWPWRR]
MIC [3]: 1.6 µM (≈ 2.03 µg/mL)

CC[C@H](C)[C@H](N)C(=O)N[C@@H](CC(C)C)C(=O)N1CCC[C@H]1C(=O)N[C@@H](Cc1c[nH]c2ccccc12)C(=O)N[C@@H](CCCCN)C(=O)N[C@@H](Cc1c[nH]c2ccccc12)C(=O)N1CCC[C@H]1C(=O)N[C@@H](Cc1c[nH]c2ccccc12)C(=O)N[C@@H](Cc1c[nH]c2ccccc12)C(=O)N1CCC[C@H]1C(=O)N[C@@H](Cc1c[nH]c2ccccc12)C(N)=O [ILPWKWPWWPW]
MIC [3]: 0.8 µM (≈ 1.28 µg/mL)
